Drawing on PubChem BioAssay (NCI), this text covers GI50 and TGI for 6 molecules.

Molecules are shown by their SMILES.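 The compound was tested at five concentrations on cells cultured in 96-well plates, with a 48-hour exposure period. GI50 is the concentration that inhibits growth by half. TGI: total growth inhibition.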

Common to all, as to assay: NCI-60 cell line screen, 48 h
Experiment [1] deals with HT29 colon.
For experiment [2], the system named is SK-MEL-28 melanoma.
Experiment [3] has as its system SF-268 CNS.
For experiment [4], the system named is MCF7 breast.
In experiment [5] the test system is RXF 393 renal.
Experiment [6] has as its system SNB-75 CNS.
The test system of experiment [7] is CAKI-1 renal.
The subject of experiment [8] is OVCAR-4 ovarian.
Experiment [9] has as its system MDA-MB-231 breast.
The subject of experiment [10] is MOLT-4 leukemia.

Take `Oc1nc(N2CCOCC2)sc1/C=C1\C=Nc2ccccc21`: the GI50 in experiment [1] is 65.2 µM; in [2], over 100 µM; in experiment [3] it was over 100 µM; in [4] it was over 100 µM; in experiment [5], over 100 µM; in [6], 64.8 µM. Also, the GI50 in experiment [7], in experiment [8], in experiment [9] and in experiment [10] was over 100 µM throughout. The TGI in [1], in [2], in experiment [3], in experiment [4], in [5] and in experiment [6] was over 100 µM in each case. The TGI in [7], in [8], in [9] and in [10] was over 100 µM in each case.

As to `O=C(Nc1ccc(Cl)c(C(F)(F)F)c1)Nc1ccc(-c2cccnc2)cc1N1CCC(CO)CC1`, the GI50 in [1] is 1.92 µM; in experiment [2], 2.22 µM; in experiment [3] it was 2.39 µM; in [4] it was 2.2 µM; in [5] it was 1.74 µM; in experiment [6], 2.1 µM. Further, the GI50 in experiment [7] was 2.32 µM; in experiment [8] it was 2.97 µM; in [9], 1.92 µM; in experiment [10], 2.57 µM. Besides, the TGI was determined as 4.02 µM in experiment [1]; 5.71 µM in [2]; 8.21 µM in [3]; 6.96 µM in experiment [4]; 3.34 µM in experiment [5]; 8.03 µM in [6]. Further, the TGI in [7] was 16 µM; in experiment [8], over 100 µM; in experiment [9] it was 4.34 µM; in experiment [10], over 100 µM.

Regarding `OCc1ccc(-c2nc(-c3ccc4c(c3)OCO4)c(-c3ccccn3)[nH]2)cc1`, the GI50 was over 25 µM in experiment [1]; over 25 µM in [2]; over 25 µM in experiment [3]; over 25 µM in experiment [4]; over 16.5 µM in experiment [5]; over 7.04 µM in [6]. In addition, the GI50 was 11.4 µM in [7], over 25 µM in experiment [8], 10.2 µM in experiment [9] and over 25 µM in experiment [10]. Moreover, the TGI in [1], in experiment [2], in experiment [3], in [4], in experiment [5] and in experiment [6] was over 25 µM throughout. For the same molecule, the TGI in experiment [7], in [8], in experiment [9] and in experiment [10] was over 25 µM throughout.

With `O=C1CN=C(c2ccc[nH]2)c2cc(Cl)ccc2N1`, the GI50 was 38.9 µM in experiment [1]; over 100 µM in experiment [2]; over 100 µM in experiment [3]; over 100 µM in experiment [4]; over 100 µM in [5]; over 100 µM in experiment [6]. Also, the GI50 in experiment [7], in [8], in experiment [9] and in [10] was over 100 µM in each case. Moreover, the TGI in [1], in [2], in experiment [3], in experiment [4], in [5] and in experiment [6] was over 100 µM throughout. Besides, the TGI in experiment [7], in experiment [8], in [9] and in [10] was over 100 µM each time.

In the case of `CC(C)[C@@]12C[C@@H](OC(=O)C3CO3)[C@@](C)(O1)[C@@H]1CC[C@@H](C)[C@H]1[C@@H]2OC(=O)/C=C/c1ccccc1` (stereo not given in full), the GI50 was 33.6 µM in [1]; 18.4 µM in experiment [2]; 12.1 µM in experiment [3]; 19.8 µM in experiment [4]; 7.86 µM in experiment [5]; 10.8 µM in [6]. For the same molecule, the GI50 in experiment [7] was 13.1 µM; in experiment [8], 13.2 µM; in [9], 13.3 µM; in experiment [10] it was 24.7 µM. Further, the TGI in [1] is over 100 µM; in experiment [2] it was 37.9 µM; in experiment [3], 40.2 µM; in [4] it was 83.3 µM; in experiment [5] it was 22.4 µM; in [6] it was 30.9 µM. Also, the TGI in experiment [7] was 54.8 µM; in experiment [8], 26.6 µM; in experiment [9], 31.2 µM; in experiment [10], over 100 µM.

Consider `O=C(Nc1ccc(I)cc1F)c1cc(Br)ccc1O`, for which the GI50 in [1] was 3.29 µM; in experiment [2], 0.393 µM; in experiment [3], 0.498 µM; in [4] it was 0.78 µM; in experiment [5], 0.778 µM; in experiment [6], 0.451 µM. Moreover, the GI50 in experiment [7] is 0.308 µM; in [8] it was 0.442 µM; in experiment [9] it was 0.457 µM; in [10], 1.39 µM. For the same molecule, the TGI was over 35.1 µM in experiment [1]; 2.04 µM in [2]; 8.07 µM in experiment [3]; 7.76 µM in experiment [4]; 3.6 µM in experiment [5]; 2.23 µM in [6]. For the same molecule, the TGI in experiment [7] was 2.34 µM; in [8], over 23.1 µM; in [9] it was 4.73 µM; in [10], 5.6 µM.
